Data from publication PMC12152883, “Bile acids inhibit equilibrative adenosine transport to alter adenosine receptor signaling in cholestasis” (The Journal of Biological Chemistry, 2025).
“And” between values parts separate entries of the source, which are not always exact repeats. Equal values may be shown once.

Experiments:
ENT3 = biological target: T1, ENT3 (Homo sapiens, UniProt Q9BZD2); assay: Inhibition of 3H-nucleoside influx by BAs in ENT3-expressing Xenopus oocytes; type: cell-based; conditions: for IC50 / ENT3 % uptake inhibition (Ado): 3H-Ado 20 μM, sodium-free buffer; for IC50: read-out: ENT3 IC50 (Ado uptake)
T1 construct: plasma membrane–directed ENT3 with a truncated N-terminus (that harbors lysosomal targeting motif); expressed in transfected cells; host or cells: Xenopus laevis oocytes injected with in vitro-transcribed mRNA from pOX-Δ36hENT3
T1 sequence (Q9BZD2 with tags, fused parts or gaps): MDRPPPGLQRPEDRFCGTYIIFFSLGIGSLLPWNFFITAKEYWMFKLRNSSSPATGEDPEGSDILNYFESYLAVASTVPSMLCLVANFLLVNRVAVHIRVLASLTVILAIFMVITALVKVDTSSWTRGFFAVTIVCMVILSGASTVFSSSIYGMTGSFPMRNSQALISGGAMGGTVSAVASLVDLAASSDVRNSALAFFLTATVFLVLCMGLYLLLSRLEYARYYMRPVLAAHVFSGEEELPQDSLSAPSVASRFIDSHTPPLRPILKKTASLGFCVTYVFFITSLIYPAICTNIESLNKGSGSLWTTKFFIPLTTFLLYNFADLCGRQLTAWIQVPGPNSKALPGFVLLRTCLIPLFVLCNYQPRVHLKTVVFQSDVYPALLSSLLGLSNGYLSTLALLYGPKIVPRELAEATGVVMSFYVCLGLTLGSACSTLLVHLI
Source text: (§1) We expressed individual ENTs (ENT1, ENT2, and ENT3) in X. laevis oocytes (as described above) and analyzed the Ado influx from each of the ENTs in the presence of different BAs to better understand whether the inhibition profiles differ across human ENTs. […] We also conducted an analysis of the concentration-dependent inhibition of Ado transport to estimate the IC50 values of the BAs (Fig. 4, D–F and Table 2).
(§2) Inhibition of Ado influx in H2O- and ENT-injected oocytes by treatment with different BAs at 100 μM. D–F, concentration-dependent inhibition of Ado influx in ENT-injected oocytes by different BAs. The bars represent the mean ± SD (n = 8–12 oocytes). A representative experiment from 3 to 5 independent experiments is presented. Statistical analysis was performed using one-way ANOVA with Dunnett’s multiple comparisons test; ∗p < 0.032, ∗∗p < 0.0021, ∗∗∗∗p < 0.0001.
(§3) The generated pOX expression constructs were linearized with either the Not1 or Sac1 restriction enzymes. The digested products were purified via phenol‒chloroform extraction. The mRNAs were synthesized using mMESSAGE mMACHINE (Ambion) transcription kits according to the manufacturer’s instructions. The mRNAs were purified via lithium precipitation. Oocytes were procured from Ecocyte. Prior to experiments, procured oocytes were defolliculated by treating with collagenase A-OR II solution followed by washing with Barth’s solution. Following microscopic verification, selected oocytes were incubated to recover overnight at 25 °C in a shaker incubator. Fifty nanoliters (400–800 ng/μl) of equal amounts of mRNAs were injected into defolliculated oocytes the next day. Expression of plasmids was analyzed after RNA isolation from oocyte extracts and conducting qPCR analysis with gene-specific primers as described earlier ([30]). The injected oocytes were incubated at 15 °C for 24 h before transport assays were performed. […] Uptake was terminated by washing the oocytes three times with arrest buffer containing 20 mM uridine. Individual oocytes were shaken overnight in 10% SDS for complete dissolution, and then the radioactivity was quantified with a Beckman liquid scintillation counter. The data are presented as the mean ± SD (n = 8–12 oocytes). A representative experiment from 3 to 5 independent experiments is presented.

ENT2 [1] = biological target: T2, ENT2 (Homo sapiens, UniProt Q14542); assay: BA transport by ENT2-injected oocytes quantified by LC-MS/MS; type: cell-based; parameters: expressed in transfected cells; host or cells: Xenopus laevis oocytes injected with in vitro-transcribed capped mRNA from pOX-hENT2; conditions: pH 7.4, p < 0.001 compared with water-injected oocytes
T2 sequence (Q14542 1-456): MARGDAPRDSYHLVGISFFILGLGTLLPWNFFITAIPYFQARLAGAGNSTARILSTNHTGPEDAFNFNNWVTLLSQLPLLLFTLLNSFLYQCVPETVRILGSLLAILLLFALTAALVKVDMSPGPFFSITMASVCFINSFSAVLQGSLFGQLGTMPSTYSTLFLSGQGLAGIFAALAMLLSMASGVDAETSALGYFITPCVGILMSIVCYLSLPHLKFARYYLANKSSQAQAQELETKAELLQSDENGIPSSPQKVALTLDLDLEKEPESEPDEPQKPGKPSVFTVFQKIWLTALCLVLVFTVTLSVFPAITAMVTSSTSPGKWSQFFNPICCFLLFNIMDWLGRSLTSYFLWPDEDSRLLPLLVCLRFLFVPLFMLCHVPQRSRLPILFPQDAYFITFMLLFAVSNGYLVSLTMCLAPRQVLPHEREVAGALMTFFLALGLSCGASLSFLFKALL
Description: Therefore, we studied several different BAs and used a liquid chromatography–tandem mass spectrometry (LC‒MS/MS) method to quantify the transport activity of H2O-injected and ENT2 mRNA-injected oocytes using TCA as a positive control. […] We subsequently tested the ability of ENT2 to transport BAs at different physiological pH values ranging from pH 5.5 to pH 7.4 by varying the pH of the transport buffers in which the assay was conducted.
The mass spectrometric validation of the transport of all metabolites was performed with oocytes using a previously reported method ([24]). […] After an incubation at 4 °C for 24 h, the samples were centrifuged at 20,000g for 10 min, and the supernatants were collected. The samples (10 μl) were injected into a Thermo Scientific Vanquish UPLC system interfaced with a Thermo Scientific TSQ Quantiva triple-stage quadrupole mass spectrometer equipped with an H-ESI ion source. MS detection was conducted in negative ionization mode, and the transitions monitored for each metabolite are listed in Sup. Table S2. The operational mass spectrometric parameters included a capillary voltage of 4.5 kV; sheath gas of 35 arbitrary units; auxiliary gas of 10 arbitrary units; sweep gas of two arbitrary units; ion transfer tube temperature of 350 °C; vaporizer temperature of 450 °C; dwell time of 50 ms per transition; collision energy of 5 V; and collision-induced dissociation gas of 1.5 mTorr. Chromatographic separation was performed on a Kinetex […] (100 × 2.1 mm; 1.7 μm particle size) from Phenomenex. The mobile phase consisted of solvent A: water (0.1% formic acid) and solvent B: acetonitrile (0.1% formic acid). The flow rate was set at 0.3 ml/min, and the autosampler was maintained at 4 °C throughout the analysis.

ENT1 [2] = biological target: T3, ENT1 (Homo sapiens, UniProt Q99808); assay: Inhibition of 3H-nucleoside influx by BAs in ENT1-expressing Xenopus oocytes; type: cell-based; conditions: 3H-Ado 20 μM, sodium-free buffer; for IC50: read-out: ENT1 IC50 (Ado uptake); for ENT1 % uptake inhibition (Ado): BA 100 μM
T3 construct: The complete ORF of ENT1 (amplified using forward primer); expressed in transfected cells; host or cells: Xenopus laevis oocytes injected with in vitro-transcribed capped mRNA from pOX-hENT1
T3 sequence (Q99808 1-456): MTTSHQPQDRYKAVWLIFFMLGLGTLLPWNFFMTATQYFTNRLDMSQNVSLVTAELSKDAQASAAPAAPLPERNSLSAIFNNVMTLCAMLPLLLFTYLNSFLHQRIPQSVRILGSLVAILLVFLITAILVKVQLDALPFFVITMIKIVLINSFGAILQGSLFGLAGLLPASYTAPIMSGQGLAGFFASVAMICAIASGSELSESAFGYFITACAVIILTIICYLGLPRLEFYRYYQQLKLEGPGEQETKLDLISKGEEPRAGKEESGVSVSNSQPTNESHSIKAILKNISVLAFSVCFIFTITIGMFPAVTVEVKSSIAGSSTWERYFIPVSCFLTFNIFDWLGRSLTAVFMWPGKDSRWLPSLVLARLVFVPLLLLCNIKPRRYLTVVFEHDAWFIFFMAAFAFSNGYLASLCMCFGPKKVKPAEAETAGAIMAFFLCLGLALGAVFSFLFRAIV
Source text: as §1, §2, §3

ENT2 [3] = biological target: T2, ENT2; assay: Inhibition of 3H-nucleoside influx by BAs in ENT2-expressing Xenopus oocytes; type: cell-based; parameters: expressed in transfected cells; host or cells: Xenopus laevis oocytes injected with in vitro-transcribed capped mRNA from pOX-hENT2; conditions: for IC50 / ENT2 % uptake inhibition (Ado): 3H-Ado 20 μM, sodium-free buffer; for IC50: read-out: ENT2 IC50 (Ado uptake)
Source text: as §1, §2, §3

ENT2 [4] = biological target: T2, ENT2; assay: Inhibition of 3H-CA transport by ENT2 in oocytes by nucleoside transporter inhibitors; type: cell-based; parameters: expressed in transfected cells; host or cells: Xenopus laevis oocytes injected with in vitro-transcribed capped mRNA from pOX-hENT2; conditions: inhibitor at 10 μM (Fig. 2D legend 100 μM), pH 7.4
Description: Next, we asked whether the transport patterns of the above BAs mediated by ENT2 are similar to those of nucleoside transport in terms of pharmacological inhibition or pH-dependent properties.
Oocytes were procured from Ecocyte. Prior to experiments, procured oocytes were defolliculated by treating with collagenase A-OR II solution followed by washing with Barth’s solution. Following microscopic verification, selected oocytes were incubated to recover overnight at 25 °C in a shaker incubator. Fifty nanoliters (400–800 ng/μl) of equal amounts of mRNAs were injected into defolliculated oocytes the next day. […] The injected oocytes were incubated at 15 °C for 24 h before transport assays were performed. The uptake of radiolabeled substrates was measured after a 30 min incubation in transport buffer (100 mM NaCl, 2 mM KCl, 1 mM CaCl2, 1 mM MgCl2, and 10 mM Hepes, pH 7.4) at room temperature. Uptake was terminated by washing the oocytes three times with arrest buffer containing 20 mM uridine. Individual oocytes were shaken overnight in 10% SDS for complete dissolution, and then the radioactivity was quantified with a Beckman liquid scintillation counter. The data are presented as the mean ± SD (n = 8–12 oocytes). A representative experiment from 3 to 5 independent experiments is presented.

ENT1 [5] = conditions: classical nucleoside transporter inhibitors; no reference given; cited from earlier work
ENT2 [6] = conditions: classical nucleoside transporter inhibitors; no reference given; cited from earlier work

| SMILES | IC50 (ENT3) [µM] | ENT3 % uptake inhibition (Ado) (ENT3; BA 100 μM) [%] | transport by ENT2 mRNA-injected vs water-injected oocytes (LC-MS/MS) (ENT2 [1]) | IC50 (ENT1 [2]) [µM] | ENT1 % uptake inhibition (Ado) (ENT1 [2]) [%] | IC50 (ENT2 [3]) [µM] | ENT2 % uptake inhibition (Ado) (ENT2 [3]; BA 100 μM) | also measured |
| --- | --- | --- | --- | --- | --- | --- | --- | --- |
| C[C@H](CCC(=O)O)[C@H]1CC[C@H]2[C@@H]3[C@H](O)C[C@@H]4C[C@H](O)CC[C@]4(C)[C@H]3CC[C@]12C [CDCA, chenodeoxycholic acid] | 0.3 ± 0.1 | 77.0 | significant transport | 24.3 ± 7 | 69.12 | 22.9 ± 4.9 | 66.07% | inhibition of guanosine transport mediated by ENT2 (ENT2 [3]; BA 100 μM, 3H-guanosine 20 μM): not statistically significant |
| C[C@H](CCC(=O)NCC(=O)O)[C@H]1CC[C@H]2[C@@H]3[C@H](O)C[C@@H]4C[C@H](O)CC[C@]4(C)[C@H]3C[C@H](O)[C@]12C [GCA, glycocholic acid] | 10.7 ± 4.6 | 68.0 | significant transport | 39.5 ± 8.5 | 35.05 | 16.7 ± 3.9 | 72.22% | – |
| C[C@H](CCC(=O)O)[C@H]1CC[C@H]2[C@@H]3CC[C@@H]4C[C@H](O)CC[C@]4(C)[C@H]3CC[C@]12C [LCA] | 88.8 ± 27.4 | 71.2 | – | 66.9 ± 15.4 | 32.59 | 18.4 ± 4.5 | 71.04% | – |
| O=[N+]([O-])c1ccc(CSc2ncnc3c2ncn3C2OC(CO)C(O)C2O)cc1 (centres unmarked) [NBMPR, nitrobenzylthioinosine] | – | – | – | – | – | – | – | reduction of 3H-CA transport by ENT2 compared with uninhibited control (ENT2 [4]): 53.38%; Ki (ENT1 [5]): ~10 nM; Ki (ENT2 [6]): ~10 µM |
| C[C@H](CCC(=O)NCCS(=O)(=O)O)[C@H]1CC[C@H]2[C@@H]3[C@@H](O)C[C@@H]4C[C@H](O)CC[C@]4(C)[C@H]3CC[C@]12C [TUDCA, tauroursodeoxycholic acid] | 35.3 ± 16.4 | 62.6 | – | 204 ± 63 | 42.72 | 4.9 ± 1.1 | 77% and 77.30% | inhibition of guanosine transport activity of ENT3 (ENT3; BA 100 μM, 3H-guanosine 20 μM): inhibited |
| C[C@H](CCC(=O)O)[C@H]1CC[C@H]2[C@@H]3[C@@H](O)[C@@H](O)[C@@H]4C[C@H](O)CC[C@]4(C)[C@H]3CC[C@]12C [beta-muricholic acid] | – | – | significant transport | – | – | – | – | – |
| COc1cc(C(=O)OCCCN2CCCN(CCCOC(=O)c3cc(OC)c(OC)c(OC)c3)CC2)cc(OC)c1OC [dilazep] | – | – | – | – | – | – | – | reduction of 3H-CA transport by ENT2 compared with uninhibited control (ENT2 [4]): 38.02%; Ki (ENT1 [5]): ~10 nM; Ki (ENT2 [6]): ~10 µM |
| OCCN(CCO)c1nc(N2CCCCC2)c2nc(N(CCO)CCO)nc(N3CCCCC3)c2n1 [dipyridamole] | – | – | – | – | – | – | – | reduction of 3H-CA transport by ENT2 compared with uninhibited control (ENT2 [4]): 34.57%; Ki (ENT1 [5]): ~10 nM; Ki (ENT2 [6]): ~10 µM |
| C[C@H](CCC(=O)O)[C@H]1CC[C@H]2[C@@H]3[C@H](O)[C@H](O)[C@@H]4C[C@H](O)CC[C@]4(C)[C@H]3CC[C@]12C [hyocholic acid] | – | – | significant transport | – | – | – | – | – |
| C[C@H](CCC(=O)NCCS(=O)(=O)O)[C@H]1CC[C@H]2[C@@H]3[C@@H](O)[C@@H](O)[C@@H]4C[C@H](O)CC[C@]4(C)[C@H]3CC[C@]12C [tauro-beta-muricholic acid] | – | – | significant transport | – | – | – | – | – |
| C[C@H](CCC(=O)O)[C@H]1CC[C@H]2[C@@H]3[C@@H](O)C[C@@H]4C[C@H](O)CC[C@]4(C)[C@H]3CC[C@]12C [ursodeoxycholic acid] | – | – | significant transport | – | – | – | – | – |
